# Data: the supplement of paper PMC10307832
# Tests used:
# Experiment in all cases: relative viability (nuclei count vs DMSO), 5 days (fraction); higher = more cells survive
# RAF265 + Navitoclax = compound: Cn1c(Nc2ccc(C(F)(F)F)cc2)nc2cc(Oc3ccnc(-c4ncc(C(F)(F)F)[nH]4)c3)ccc21 [RAF265] + CC1(C)CCC(c2ccc(Cl)cc2)=C(CN2CCN(c3ccc(C(=O)NS(=O)(=O)c4ccc(N[C@H](CCN5CCOCC5)CSc5ccccc5)c(S(=O)(=O)C(F)(F)F)c4)cc3)CC2)C1 [Navitoclax] (partner 0.5 µM)
# How it was run: (§1)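 Lung cancer cell lines were seeded in 1536-well plates and dosed by pin tool the next day, with either a single drug or a fixed anchor-drug dose combined with five library-drug doses (not always all listed) spaced in √10 steps. Five days later, one step fixed the cells and stained their nuclei (final 0.05% Triton X-100, 1% formaldehyde, 1 ug/ml Hoechst), and nuclei were counted on 4× images. Relative viability is the nuclei count in treated wells divided by the count in vehicle wells, and each value is the median of duplicate plates.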
# RAF265 + Olaparib = compound: Cn1c(Nc2ccc(C(F)(F)F)cc2)nc2cc(Oc3ccnc(-c4ncc(C(F)(F)F)[nH]4)c3)ccc21 [RAF265] + O=C(c1cc(Cc2n[nH]c(=O)c3ccccc23)ccc1F)N1CCN(C(=O)C2CC2)CC1 [Olaparib] (partner 8 µM)
# How it was run: as §1
# IPA-3 + Trametinib = compound: C1=CC=C2C(=C1)C=CC(=C2SSC3=C(C=CC4=CC=CC=C43)O)O [IPA-3] + CC(=O)Nc1cccc(-n2c(=O)n(C3CC3)c(=O)c3c(Nc4ccc(I)cc4F)n(C)c(=O)c(C)c32)c1 [Trametinib] (partner 0.02 µM)
# How it was run: as §1
# RAF265 + Phenformin = compound: Cn1c(Nc2ccc(C(F)(F)F)cc2)nc2cc(Oc3ccnc(-c4ncc(C(F)(F)F)[nH]4)c3)ccc21 [RAF265] + N=C(N)NC(=N)NCCc1ccccc1 [Phenformin] (partner 250 µM)
# How it was run: as §1
Cell Line,relative viability (RAF265 + Navitoclax; first compound 0.01 µM),relative viability (RAF265 + Navitoclax; first compound 0.03162 µM),relative viability (RAF265 + Navitoclax; first compound 0.1 µM),relative viability (RAF265 + Navitoclax; first compound 0.3162 µM),relative viability (RAF265 + Navitoclax; first compound 1 µM),relative viability (RAF265 + Olaparib; first compound 0.01 µM),relative viability (RAF265 + Olaparib; first compound 0.03162 µM),relative viability (RAF265 + Olaparib; first compound 0.1 µM),relative viability (RAF265 + Olaparib; first compound 0.3162 µM),relative viability (RAF265 + Olaparib; first compound 1 µM),relative viability (IPA-3 + Trametinib; first compound 0.2 µM),relative viability (IPA-3 + Trametinib; first compound 0.6325 µM),relative viability (IPA-3 + Trametinib; first compound 2 µM),relative viability (IPA-3 + Trametinib; first compound 6.325 µM),relative viability (IPA-3 + Trametinib; first compound 20 µM),relative viability (RAF265 + Phenformin; first compound 0.01 µM),relative viability (RAF265 + Phenformin; first compound 0.03162 µM),relative viability (RAF265 + Phenformin; first compound 0.1 µM),relative viability (RAF265 + Phenformin; first compound 0.3162 µM),relative viability (RAF265 + Phenformin; first compound 1 µM)
HCC-78,0.898,0.901,0.912,0.726,0.731,1,0.876,1.06,0.864,0.724,0.832,0.714,0.806,0.849,0.918,0.87,0.847,0.832,0.647,0.652
HCC-366,1.09,1.15,1.13,1.09,0.776,0.388,0.38,0.452,0.397,0.239,0.487,0.301,0.374,0.336,0.283,0.594,0.552,0.596,0.435,0.45
HCC-827,1.06,0.987,1.08,,0.78,0.727,0.7,0.794,,0.512,0.553,0.518,0.585,0.597,0.675,0.431,0.444,0.41,,0.398
HOP-62,0.942,0.963,0.921,0.995,0.951,0.461,0.448,0.439,0.479,0.268,0.408,0.349,0.414,0.348,0.382,0.676,0.505,0.638,0.557,0.576
IA-LM,0.73,,0.663,0.597,0.609,0.745,0.81,0.832,0.681,0.61,,,,,,,,,,
LC-2-ad,0.527,0.283,0.311,0.162,0.115,0.696,0.769,0.921,0.904,0.636,0.958,0.943,0.93,0.948,0.889,0.628,0.581,0.586,0.394,0.455
LCLC-97TM1,0.512,0.356,0.461,0.191,0.135,0.363,0.299,0.237,0.22,0.109,0.221,0.206,0.205,0.218,0.223,0.42,0.384,0.21,0.252,0.148
LCLC-103H,,,,,,0.759,0.717,0.75,0.595,0.444,0.693,0.686,0.718,0.687,0.675,0.333,0.346,0.305,0.319,0.285
LK-2,0.777,0.791,0.832,0.633,0.57,0.794,0.751,0.769,0.668,0.512,0.904,0.752,0.721,0.846,0.934,0.445,0.417,0.385,0.63,0.402
LOU-NH91,0.731,0.594,0.757,0.389,0.387,1.02,0.831,0.9,0.675,0.737,0.79,0.757,0.805,0.779,0.852,0.86,0.639,0.721,0.64,0.52
NCI-H358,,,,,,0.749,0.489,0.403,0.286,0.16,0.136,0.132,0.134,0.134,0.114,0.419,0.308,0.252,0.144,0.149
NCI-H522,,,,,,0.791,0.695,0.737,0.728,0.57,0.828,0.792,0.822,0.875,0.711,0.677,0.648,0.655,0.33,0.569
NCI-H650,,,,,,0.384,0.383,0.376,0.324,0.174,1.11,0.973,0.888,1.1,1.32,0.469,0.438,0.383,0.348,0.289
NCI-H661,,,,,,0.775,0.667,0.724,0.605,0.464,0.679,0.584,0.613,0.589,0.555,0.258,0.27,0.275,0.281,0.261
NCI-H1299,1.03,0.988,1.06,0.989,0.738,0.984,0.906,0.949,0.625,0.664,,,,,,,,,,
NCI-H1563,,,,,,,,,,,,,,,,0.676,0.674,0.66,0.64,0.623
NCI-H1623,,,,,,,,,,,,,,,,0.652,0.578,0.646,,0.388
NCI-H1648,,,,,,1.43,0.891,0.537,0.78,0.279,0.476,0.495,0.555,0.494,0.524,,,,,
NCI-H1703,1.16,0.95,0.848,0.576,0.283,0.358,0.416,0.342,0.33,0.273,,,,,,,,,,
NCI-H2342,,,,,,0.377,0.37,0.468,0.395,0.348,0.74,0.734,0.955,0.872,0.937,0.502,0.617,0.679,0.468,0.549
SW 900,,,,,,0.89,0.725,0.79,0.716,0.27,0.939,0.497,0.752,0.675,0.938,0.73,0.491,0.665,0.283,0.293
